The nature of data set [1]: Basal toxicity test, neutral red, alternative LD50 calculated from IC50. Particulars: mouse, LD50, alternative LD50 calculated by formula from IC50 in NIH 3T3 cells. How it is done: A low therapeutic index of chemotherapy agents is due to affecting not only cancer formation but also normal cells.
9,000 NIH 3T3 cells/well were placed into 96-well plates for 24 h and then exposed to the test compound over a range of eight concentration (1-1000 μg/ml) for 24 h. Upon that, the cells were incubated with the neutral red dye for 4 h and then OD was determined at 540 nm. […] The IC50 values were calculated using the program Graph Pad Prism® 4.0

For data set [2], the system named is A7R5 (rat aorta smooth muscle) cells. Description: Intracellular Ca2+ measurements, Fluo-4 NW Calcium Assay Kit, KCl-induced [Ca2+]i increase. In kind it is cell-based. To be noted: for Ca^2+ antagonist effect compared with Verapamil: relative to Verapamil. The procedure:
Changes in intracellular [Ca^2+] concentration were studied using A7R5 (rat aorta smooth muscle) cells and Fluo-4 NW Calcium Assay Kit (“Invitrogen”, Sweden) according to manufacturer's instructions.
Changes in intracellular [Ca^2+]i concentration were studied using Fluo-4 NW Calcium Assay Kit (“Invitrogen”, Sweden) accordingly to manufacturer's instructions. The A7R5 (rat aorta smooth muscle) cells were grown at 37° C. in a humidified atmosphere with 5% CO2/95% air in DMEM medium containing 2 mM glutamine and supplemented with 10% FBS. The cells were seeded into 96 well plate at 10,000 cells/well and incubated for 72 h. The cells were loaded with […] for 45 min. The Fura-4NW loaded cells were pre-incubated in the dark for 15 minutes with tested compounds at concentrations from 0.8 to 100 μM. Then A7R5 cells were pre-treated with 1.5 mM CaCl2 for 5 minutes and KCl (50 mM) was added to A7R5 cells to induce [Ca^2+]i increase. Amlodipine, the well-known calcium channel inhibitor was used as the positive control.

Where [3] appears, read: Rattus norvegicus, A7R5, read-out: Ca^2+ A7R5, IC50.

Read-outs that look alike come from different tables or passages of the source.

With `COc1ccc(C(=O)c2sc3nc(C)c(C(C)=O)c(-c4ccc(OC)c(OC)c4)c3c2N)cc1` [Compound 1, 5-Acetyl-3-amino-4-(3,4-dimethoxyphenyl)-2-(4-methoxybenzoyl)-6-methyl-thieno[2,3-b]pyridine], the LD50 at 24 h in data set [1] is greater than 2000 mg/kg. In data set [2] (setting [3]), the IC50 is 24 ± 1.2 µM.

For `COc1ccc(C(=O)c2sc3nc(C)c(C(C)=O)c(-c4ccc(OC)c(OC)c4)c3c2N)c(OC)c1` [Compound 2, 5-Acetyl-3-amino-2-(2,4-dimethoxybenzoyl)-4-(3,4-dimethoxyphenyl)-6-methyl-thieno[2,3-b]pyridine], the LD50 at 24 h in data set [1] is greater than 2000 mg/kg. The IC50 in data set [2] (setting [3]) turned out to be 15 ± 1.1 µM.

As to `COc1ccc(C(=O)c2sc3nc(C)c(C(C)=O)c(-c4cc(OC)c(OC)c(OC)c4)c3c2N)cc1` [Compound 3, 5-Acetyl-3-amino-2-(4-methoxybenzoyl)-6-methyl-4-(3,4,5-trimethoxyphenyl)-thieno[2,3-b]pyridine], the LD50 at 24 h in data set [1] was greater than 2000 mg/kg. Besides, in data set [2] (setting [3]), the IC50 was determined as 14 ± 0.9 µM. For the same compound, the “Ca^2+ antagonist effect compared with Verapamil” value in data set [2] (A7R5 cells) is listed as “more than ten times lower”.

Take `COc1ccc(C(=O)c2sc3nc(C)c(C(C)=O)c(-c4cc(OC)c(OC)c(OC)c4)c3c2N)c(OC)c1` [Compound 4, 5-Acetyl-3-amino-2-(2,4-dimethoxybenzoyl)-6-methyl-4-(3,4,5-trimethoxyphenyl)-thieno[2,3-b]pyridine]: the median lethal dose (LD50) at 24 h in data set [1] is 1070 mg/kg. In addition, the “Ca^2+ A7R5, IC50” value in data set [2] (A7R5 cells, KCl (50 mM) induced [Ca2+]i increase, compounds 0.8 to 100 μM) is “No effect”.

`COC(=O)c1c(C)nc2sc(C(=O)c3ccc(OC)cc3)c(N)c2c1-c1ccc(OC)cc1` [Compound 5, 3-Amino-2-(4-methoxybenzoyl)-4-(4-methoxyphenyl)-6-methyl-thieno[2,3-b]-pyridine-5-carboxylic acid methyl ester]: the LD50 at 24 h in data set [1] was greater than 2000 mg/kg. In data set [2] (setting [3]), the IC50 is 15.4 ± 2 µM.

`COC(=O)c1c(C)nc2sc(C(=O)c3ccc(OC)cc3OC)c(N)c2c1-c1ccc(OC)c(OC)c1` [Compound 7, 3-Amino-2-(2,4-dimethoxybenzoyl)-4-(3,4-dimethoxyphenyl)-6-methyl-thieno[2,3-b]pyridine-5-carboxylic acid methyl ester]: the LD50 at 24 h in data set [1] was 1040 mg/kg. Besides, the IC50 in data set [2] (setting [3]) came to 5.6 ± 1.4 µM.

Regarding `COC(=O)c1c(C)nc2sc(C(=O)c3ccc(F)cc3)c(N)c2c1-c1cc(OC)c(OC)c(OC)c1` [Compound 8, 3-Amino-2-(4-fluorobenzoyl)-6-methyl-4-(3,4,5-trimethoxyphenyl)thieno[2,3-b]-pyridine-5-carboxylic acid methyl ester], the 50% lethal dose (LD50) at 24 h in data set [1] was greater than 2000 mg/kg. In addition, in data set [2] (setting [3]), the concentration for half-maximal inhibition (IC50) worked out at 3 ± 0.8 µM.

Turning to `COC(=O)c1c(C)nc2sc(C(=O)c3ccc(Cl)cc3)c(N)c2c1-c1cc(OC)c(OC)c(OC)c1` [Compound 9, 3-Amino-2-(4-chlorobenzoyl)-6-methyl-4-(3,4,5-trimethoxyphenyl)thieno[2,3-b]-pyridine-5-carboxylic acid methyl ester], in data set [1], the LD50 at 24 h is 1420 mg/kg. For the same compound, the 50% inhibitory concentration (IC50) in data set [2] (setting [3]) was found to be 3 ± 0.2 µM.

For `CCOC(=O)c1c(C)nc2sc(C(=O)c3ccc(OC)cc3)c(N)c2c1-c1ccc(O)cc1` [Compound 14, 3-Amino-4-(4-hydroxyphenyl)-2-(4-methoxybenzoyl)-6-methylthieno[2,3-b]-pyridine-5-carboxylic acid ethyl ester], in data set [1], the median lethal dose (LD50) at 24 h is 231 mg/kg. In addition, the 50% inhibitory concentration (IC50) in data set [2] (setting [3]) stood at 4.3 ± 0.7 µM.

As to `CCOC(=O)c1c(C)nc2sc(C(=O)c3ccc(OC)cc3)c(N)c2c1-c1ccc(O)c(OC)c1` [Compound 16, 3-Amino-4-(4-hydroxy-3-methoxyphenyl)-2-(4-methoxybenzoyl)-6-methyl-thieno[2,3-b]pyridine-5-carboxylic acid ethyl ester], in data set [1], the median lethal dose (LD50) at 24 h was greater than 2000 mg/kg. In addition, in data set [2] (setting [3]), the IC50 is 3.7 ± 0.4 µM. For the same compound, the “Ca^2+ antagonist effect compared with Verapamil” value in data set [2] (A7R5 cells) is on record as “more than ten times lower”.

As to `CCOC(=O)c1c(C)nc2sc(C(=O)c3ccc(OC)cc3)c(N)c2c1-c1ccc(OC)cc1` [Compound 17, 3-Amino-2-(4-methoxybenzoyl)-4-(4-methoxyphenyl)-6-methylthieno[2,3-b]-pyridine-5-carboxylic acid ethyl ester], in data set [1], the LD50 at 24 h was greater than 2000 mg/kg. Besides, in data set [2] (setting [3]), the IC50 was found to be 100 ± 11 µM.

Consider `CCOC(=O)c1c(C)nc2sc(C(=O)c3ccc(F)cc3)c(N)c2c1-c1ccc(OC)c(OC)c1` [Compound 18, 3-Amino-4-(3,4-dimethoxyphenyl)-2-(4-fluorobenzoyl)-6-methylthieno[2,3-b]-pyridine-5-carboxylic acid ethyl ester], for which the LD50 at 24 h in data set [1] is greater than 2000 mg/kg. In data set [2] (setting [3]), the IC50 came out at 7 ± 1.2 µM.

On to `CCOC(=O)c1c(C)nc2sc(C(=O)c3ccc(Cl)cc3)c(N)c2c1-c1ccc(OC)c(OC)c1` [Compound 19, 3-Amino-2-(4-chlorobenzoyl)-4-(3,4-dimethoxyphenyl)-6-methylthieno[2,3-b]-pyridine-5-carboxylic acid ethyl ester], for which the 50% lethal dose (LD50) at 24 h in data set [1] was greater than 2000 mg/kg. Also, in data set [2] (setting [3]), the half-inhibitory concentration (IC50) stood at 11 ± 0.7 µM.

On to `CCOC(=O)c1c(C)nc2sc(C(=O)c3ccc(OC)cc3)c(N)c2c1-c1ccc(OC)c(OC)c1` [Compound 20, 3-Amino-4-(3,4-dimethoxyphenyl)-2-(4-methoxybenzoyl)-6-methylthieno[2,3-b]-pyridine-5-carboxylic acid ethyl ester], for which, in data set [1], the LD50 at 24 h is 2040 mg/kg. In addition, in data set [2] (setting [3]), the IC50 was determined as 3 ± 0.4 µM.

In the case of `CCOC(=O)c1c(C)nc2sc(C(=O)c3ccc(OC)cc3OC)c(N)c2c1-c1ccc(OC)c(OC)c1` [Compound 21, 3-Amino-2-(2,4-dimethoxybenzoyl)-4-(3,4-dimethoxyphenyl)-6-methyl-thieno[2,3-b]pyridine-5-carboxylic acid ethyl ester], in data set [1], the median lethal dose (LD50) at 24 h was 2360 mg/kg. Moreover, in data set [2] (setting [3]), the IC50 worked out at 1.2 ± 0.2 µM.

As to `CCOC(=O)c1c(C)nc2sc(C(=O)c3ccc(F)cc3)c(N)c2c1-c1cc(OC)c(OC)c(OC)c1` [Compound 22, 3-Amino-2-(4-fluorobenzoyl)-4-(3,4,5-trimethoxyphenyl)-6-methylthieno[2,3-b]-pyridine-5-carboxylic acid ethyl ester], the 50% lethal dose (LD50) at 24 h in data set [1] is greater than 2000 mg/kg. Also, in data set [2] (setting [3]), the IC50 came to 20 ± 2 µM. In addition, the “Ca^2+ antagonist effect compared with Verapamil” value in data set [2] (A7R5 cells) is “more than ten times lower”.

In the case of `CCOC(=O)c1c(C)nc2sc(C(=O)c3ccc(Cl)cc3)c(N)c2c1-c1cc(OC)c(OC)c(OC)c1` [Compound 23, 3-Amino-2-(4-chlorobenzoyl)-4-(3,4,5-trimethoxyphenyl)-6-methylthieno[2,3-b]-pyridine-5-carboxylic acid ethyl ester], the LD50 at 24 h in data set [1] was 2700 mg/kg. For the same compound, the IC50 in data set [2] (setting [3]) is 4 ± 0.4 µM.

As to `CCOC(=O)c1c(C)nc2sc(C(=O)c3ccc(OC)cc3)c(N)c2c1-c1ccc(OCC)cc1` [Compound 26, 3-Amino-4-(4-ethoxyphenyl)-2-(4-methoxybenzoyl)-6-methylthieno[2,3-b]-pyridine-5-carboxylic acid ethyl ester], in data set [1], the median lethal dose (LD50) at 24 h was greater than 2000 mg/kg. Also, in data set [2] (setting [3]), the IC50 is greater than 100 µM.

Turning to `CCOC(=O)c1c(C)nc2sc(C(=O)c3ccc(OC)cc3)c(N)c2c1-c1ccc(Cl)cc1` [Compound 28, 3-Amino-4-(4-chlorophenyl)-2-(4-methoxybenzoyl)-6-methylthieno[2,3-b]-pyridine-5-carboxylic acid ethylester], the 50% lethal dose (LD50) at 24 h in data set [1] was greater than 2000 mg/kg. Moreover, the IC50 in data set [2] (setting [3]) was greater than 100 µM.

On to `CCCCOC(=O)c1c(C)nc2sc(C(=O)c3ccc(OC)cc3)c(N)c2c1-c1cc(OC)c(OC)c(OC)c1` [Compound 30, 3-Amino-2-(4-methoxybenzoyl)-6-methyl-4-(3,4,5-trimethoxyphenyl)thieno[2,3-b]-pyridine-5-carboxylic acid butyl ester], for which the median lethal dose (LD50) at 24 h in data set [1] was greater than 2000 mg/kg. For the same compound, in data set [2] (setting [3]), the IC50 is 5 ± 0.7 µM.

With `COCCOC(=O)c1c(C)nc2sc(C(=O)c3ccc(OC)cc3)c(N)c2c1-c1ccc(OC)cc1` [Compound 31, 3-Amino-2-(4-methoxybenzoyl)-4-(4-methoxyphenyl)-6-methylthieno[2,3-b]-pyridine-5-carboxylic acid 2-methoxyethyl ester], in data set [1], the 50% lethal dose (LD50) at 24 h was greater than 2000 mg/kg. In addition, the IC50 in data set [2] (setting [3]) stood at 21 ± 4 µM.

As to `COCCOC(=O)c1c(C)nc2sc(C(=O)c3ccccc3)c(N)c2c1-c1cc(OC)c(OC)c(OC)c1` [Compound 32, 3-Amino-2-benzoyl-6-methyl-4-(3,4,5-trimethoxyphenyl)thieno[2,3-b]pyridine-5-carboxylic acid 2-methoxyethyl ester], the LD50 at 24 h in data set [1] was greater than 2000 mg/kg. The IC50 in data set [2] (setting [3]) was found to be 2.2 ± 0.3 µM. Further, in data set [2] (A7R5 cells), the “Ca^2+ antagonist effect compared with Verapamil” value is on record as “more than ten times lower”.

On to `CCCOCCOC(=O)c1c(C)nc2sc(C(=O)c3ccc(OC)cc3OC)c(N)c2c1-c1cc(OC)c(OC)c(OC)c1` [Compound 37, 3-Amino-2-(2,4-dimethoxybenzoyl)-6-methyl-4-(3,4,5-trimethoxyphenyl)-thieno[2,3-b]pyridine-5-carboxylic acid 2-propoxyethyl ester], for which the IC50 in data set [2] (A7R5 cells, KCl (50 mM) induced [Ca2+]i increase, compounds 0.8 to 100 μM, read-out: Ca^2+ A7R5, IC50) is greater than 100 µM.

Turning to `COc1ccc(C(=O)c2sc3nc(C)cc(C)c3c2N)c(OC)c1` [Compound 45, 3-Amino-4,6-dimethyl-2-(2,4-dimetoxybenzoyl)thieno[2,3-b]pyridine], in data set [1], the LD50 at 24 h was 959 mg/kg.

Usually LD50 stands for the dose at which mortality reaches 50%. As a reminder, the IC50 is the point on the concentration scale where inhibition reaches its midpoint.

These data come from US9908893B2 (Latvian Institute of Organic Synthesis, priority 2013, dated 2018).
